Results: patent publication US20220387602A1, “BIFUNCTIONAL DEGRADERS AND THEIR METHODS OF USE” (NOVARTIS AG, priority 2019, published 2022)

Key:
[1] = biological target: CRBN (Homo sapiens, UniProt Q96SW2); assay: CRBN displacement assay Format 1 (fluorescence polarization, BodipyFL-lenalidomide probe Compound HH); format: binding
Method in brief: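 Fluorescence polarization competition: CRBN (nominal 100 nM final) pre-incubated 45 min at room temperature with compound, then BodipyFL-lenalidomide probe added (5 nM final; 0.9% DMSO).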

[2] = biological target: T1, BTK (Homo sapiens, UniProt Q06187); assay: BTK-GFP protein abundance flow cytometry assay in HEK293A; format: cell-based; details: 24 h; for BTK degradation Amax: % protein remaining at the concentration at which maximum degradation is seen, HEK293A; for DC50: concentration at which 50% maximal degradation was observed, HEK293A BTK-GFP sensor cells
T1 construct: the BTK open reading frame (ORF) was first shuttled from a pcDNA-DEST40-BTK vector; expressed in transfected cells; host or cells: HEK293A (Invitrogen R70507), lentiviral transduction, blasticidin selection
Method in brief: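 HEK293A cells stably expressing bicistronic BTK-GFP-iresRFP were treated 24 h at 37° C with 10-point 1:3 dilutions from 10 μM, DMSO at 0.1%. GFP was read by flow cytometry as median of 5,000 single cells, scaled between RFP-only cells (0%) and DMSO controls (100%). DC50 = concentration at 50% degradation; Amax = % protein remaining at maximal degradation.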

T1 sequence (Q06187 whole entry): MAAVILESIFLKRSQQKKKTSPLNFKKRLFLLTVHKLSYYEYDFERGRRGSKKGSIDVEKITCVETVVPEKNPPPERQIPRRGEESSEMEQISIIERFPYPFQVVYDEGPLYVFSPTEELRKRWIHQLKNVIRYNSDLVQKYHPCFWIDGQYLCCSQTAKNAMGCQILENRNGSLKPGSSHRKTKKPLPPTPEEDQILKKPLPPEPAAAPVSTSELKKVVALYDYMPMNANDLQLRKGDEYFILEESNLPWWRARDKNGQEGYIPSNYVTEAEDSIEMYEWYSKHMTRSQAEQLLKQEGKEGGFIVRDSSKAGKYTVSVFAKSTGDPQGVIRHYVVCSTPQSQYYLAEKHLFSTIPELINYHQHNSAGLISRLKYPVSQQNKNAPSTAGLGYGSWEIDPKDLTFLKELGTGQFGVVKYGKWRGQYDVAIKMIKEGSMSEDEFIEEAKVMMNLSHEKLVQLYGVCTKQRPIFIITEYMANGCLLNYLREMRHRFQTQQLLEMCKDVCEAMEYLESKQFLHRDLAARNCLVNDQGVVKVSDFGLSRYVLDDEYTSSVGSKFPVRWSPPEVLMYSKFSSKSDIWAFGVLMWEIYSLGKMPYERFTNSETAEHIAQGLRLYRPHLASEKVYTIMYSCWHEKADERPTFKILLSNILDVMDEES
CRBN, sequence (Q96SW2 whole entry): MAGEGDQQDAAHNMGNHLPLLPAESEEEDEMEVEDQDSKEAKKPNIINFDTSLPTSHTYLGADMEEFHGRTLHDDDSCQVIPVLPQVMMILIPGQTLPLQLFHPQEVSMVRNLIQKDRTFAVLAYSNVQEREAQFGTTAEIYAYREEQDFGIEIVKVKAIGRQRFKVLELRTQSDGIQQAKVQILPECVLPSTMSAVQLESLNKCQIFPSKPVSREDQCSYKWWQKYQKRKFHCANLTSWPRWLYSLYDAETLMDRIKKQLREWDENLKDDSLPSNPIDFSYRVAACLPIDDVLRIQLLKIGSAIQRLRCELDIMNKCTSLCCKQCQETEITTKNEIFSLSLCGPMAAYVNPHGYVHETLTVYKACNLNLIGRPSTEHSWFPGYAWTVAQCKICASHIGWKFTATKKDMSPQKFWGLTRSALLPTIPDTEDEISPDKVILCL

Row | Structure (SMILES) | AC50 [1] [nM] | BTK degradation Amax [2] [%] | DC50 [2] [nM]
1 | COc1ccc(C(=O)N2CCC3(CCN(C(=O)CCCCCCCN4CCN(c5cc(Nc6ncc(C(=O)Nc7c(C)cccc7Cl)s6)nc(C)n5)CC4)CC3)CC2)cc1N1CCC(=O)NC1=O [compound 06, N-(2-chloro-6-methylphenyl)-2-((6-(4-(8-(9-(3-(2,4-dioxotetrahydropyrimidin-1(2H)-yl)-4-methoxybenzoyl)-3,9-diazaspiro[5.5]undecan-3-yl)-8-oxooctyl)piperazin-1-yl)-2-methylpyrimidin-4-yl)amino)thiazole-5-carboxamide] | 162 | 2.1 | 4.7
2 | COc1ccc(C(=O)N2CCC3(CCN(C(=O)CN4CCN(c5cc(Nc6ncc(C(=O)Nc7c(C)cccc7Cl)s6)nc(C)n5)CC4)CC3)CC2)cc1N1CCC(=O)NC1=O [compound 07, N-(2-chloro-6-methylphenyl)-2-((6-(4-(2-(9-(3-(2,4-dioxotetrahydropyrimidin-1(2H)-yl)-4-methoxybenzoyl)-3,9-diazaspiro[5.5]undecan-3-yl)-2-oxoethyl)piperazin-1-yl)-2-methylpyrimidin-4-yl)amino)thiazole-5-carboxamide] | 496 | 0.9 | 9.3
